Drawing on the supplement of paper PMC10307832, this text covers relative viability for five cell lines.

Common to all, as to assay: relative viability (nuclei count vs DMSO), 5 days (fraction); higher = more cells survive
Compound in the assay “AZD5582 + Decitabine”: C[C@@H](C(=O)N[C@@H](C1CCCCC1)C(=O)N2CCC[C@H]2C(=O)N[C@@H]3[C@@H](CC4=CC=CC=C34)OCC#CC#CCO[C@@H]5CC6=CC=CC=C6[C@@H]5NC(=O)[C@@H]7CCCN7C(=O)[C@H](C8CCCCC8)NC(=O)[C@H](C)NC)NC [AZD5582] + Nc1ncn([C@H]2C[C@H](O)[C@@H](CO)O2)c(=O)n1 [Decitabine] (partner 2 µM)
The gist of the method: (§1)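 Lung cancer cell lines, seeded in 1536-well plates, were treated the following day by pin tool with a single drug or with five library-drug doses (not always all listed) in √10 steps on top of a fixed anchor-drug dose. Cells were fixed and nuclei stained in one step after 5 days, and nuclei were counted. Relative viability is the nuclei count for treated wells divided by that for vehicle wells, reported as medians of duplicate plates.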

Compound in the assay “AZD5582 + Vorinostat”: C[C@@H](C(=O)N[C@@H](C1CCCCC1)C(=O)N2CCC[C@H]2C(=O)N[C@@H]3[C@@H](CC4=CC=CC=C34)OCC#CC#CCO[C@@H]5CC6=CC=CC=C6[C@@H]5NC(=O)[C@@H]7CCCN7C(=O)[C@H](C8CCCCC8)NC(=O)[C@H](C)NC)NC [AZD5582] + O=C(CCCCCCC(=O)Nc1ccccc1)NO [Vorinostat] (partner 1 µM)
The gist of the method: as §1

Compound in assay [1]: Cn1nnc2c(C(N)=O)ncn2c1=O [Temozolomide] + CC1(C)CCC(c2ccc(Cl)cc2)=C(CN2CCN(c3ccc(C(=O)NS(=O)(=O)c4ccc(N[C@H](CCN5CCOCC5)CSc5ccccc5)c(S(=O)(=O)C(F)(F)F)c4)cc3)CC2)C1 [Navitoclax] (partner 0.5 µM)
In outline:
as §1

Compound in the assay “AZD5582 + Foretinib”: C[C@@H](C(=O)N[C@@H](C1CCCCC1)C(=O)N2CCC[C@H]2C(=O)N[C@@H]3[C@@H](CC4=CC=CC=C34)OCC#CC#CCO[C@@H]5CC6=CC=CC=C6[C@@H]5NC(=O)[C@@H]7CCCN7C(=O)[C@H](C8CCCCC8)NC(=O)[C@H](C)NC)NC [AZD5582] + COc1cc2c(Oc3ccc(NC(=O)C4(C(=O)Nc5ccc(F)cc5)CC4)cc3F)ccnc2cc1OCCCN1CCOCC1 [Foretinib] (partner 0.25 µM)
The gist of the method: as §1

On to NCI-H2023, for which the relative viability with AZD5582 + Decitabine (first compound 0.001581 µM) was found to be 0.217; in the assay with AZD5582 + Decitabine (first compound 0.005 µM), 0.2; in the assay with AZD5582 + Decitabine (first compound 0.01581 µM), 0.243; in the assay with AZD5582 + Decitabine (first compound 0.05 µM), 0.204; in the assay with AZD5582 + Vorinostat (first compound 0.001581 µM), 0.508; with AZD5582 + Vorinostat (first compound 0.005 µM), 0.725. Besides, the relative viability was determined as 0.627 with AZD5582 + Vorinostat (first compound 0.01581 µM); 0.643 in the assay with AZD5582 + Vorinostat (first compound 0.05 µM); 1.02 in assay [1] (first compound 0.2 µM); 1 in assay [1] (first compound 0.6325 µM); 1.13 in assay [1] (first compound 2 µM); 0.985 in assay [1] (first compound 6.325 µM). Moreover, the relative viability in assay [1] (first compound 20 µM) amounted to 0.997; in the assay with AZD5582 + Foretinib (first compound 0.001581 µM) it was 0.805; with AZD5582 + Foretinib (first compound 0.005 µM), 0.851; in the assay with AZD5582 + Foretinib (first compound 0.01581 µM) it was 0.802; with AZD5582 + Foretinib (first compound 0.05 µM), 0.804.

Turning to NCI-H1915, the relative viability with AZD5582 + Decitabine (first compound 0.001581 µM) amounted to 0.278; in the assay with AZD5582 + Decitabine (first compound 0.005 µM) it was 0.26; with AZD5582 + Decitabine (first compound 0.01581 µM) it was 0.276; with AZD5582 + Decitabine (first compound 0.05 µM), 0.259; in the assay with AZD5582 + Vorinostat (first compound 0.001581 µM) it was 0.428; with AZD5582 + Vorinostat (first compound 0.005 µM), 0.439. For the same cell line, the relative viability turned out to be 0.462 in the assay with AZD5582 + Vorinostat (first compound 0.01581 µM); 0.477 in the assay with AZD5582 + Vorinostat (first compound 0.05 µM); 0.797 in assay [1] (first compound 0.2 µM); 0.754 in assay [1] (first compound 0.6325 µM); 0.684 in assay [1] (first compound 2 µM); 0.495 in assay [1] (first compound 6.325 µM). In addition, the relative viability in assay [1] (first compound 20 µM) worked out at 0.305; with AZD5582 + Foretinib (first compound 0.001581 µM), 1.06; in the assay with AZD5582 + Foretinib (first compound 0.005 µM) it was 1.09; with AZD5582 + Foretinib (first compound 0.01581 µM), 1.13; with AZD5582 + Foretinib (first compound 0.05 µM), 1.09.

On to PC-14, for which the relative viability in the assay with AZD5582 + Decitabine (first compound 0.001581 µM) stood at 0.12; with AZD5582 + Decitabine (first compound 0.005 µM), 0.165; with AZD5582 + Decitabine (first compound 0.01581 µM) it was 0.205; in the assay with AZD5582 + Decitabine (first compound 0.05 µM), 0.116; with AZD5582 + Vorinostat (first compound 0.001581 µM) it was 0.636; with AZD5582 + Vorinostat (first compound 0.005 µM), 0.881. Also, the relative viability with AZD5582 + Vorinostat (first compound 0.01581 µM) was found to be 0.406; with AZD5582 + Vorinostat (first compound 0.05 µM), 0.687; in assay [1] (first compound 0.2 µM), 1.07; in assay [1] (first compound 0.6325 µM), 1.01; in assay [1] (first compound 2 µM) it was 1.06; in assay [1] (first compound 6.325 µM) it was 0.956. The relative viability in assay [1] (first compound 20 µM) was found to be 0.928; in the assay with AZD5582 + Foretinib (first compound 0.001581 µM), 0.903; with AZD5582 + Foretinib (first compound 0.005 µM), 1.06; with AZD5582 + Foretinib (first compound 0.01581 µM) it was 0.938; with AZD5582 + Foretinib (first compound 0.05 µM), 0.945.

Take LCLC-97TM1: the relative viability stood at 0.216 with AZD5582 + Decitabine (first compound 0.001581 µM); 0.189 with AZD5582 + Decitabine (first compound 0.005 µM); 0.243 with AZD5582 + Decitabine (first compound 0.01581 µM); 0.0933 with AZD5582 + Decitabine (first compound 0.05 µM); 0.34 with AZD5582 + Vorinostat (first compound 0.001581 µM); 0.62 with AZD5582 + Vorinostat (first compound 0.005 µM). The relative viability with AZD5582 + Vorinostat (first compound 0.01581 µM) was 0.159; with AZD5582 + Vorinostat (first compound 0.05 µM), 0.343; in assay [1] (first compound 0.2 µM), 0.546; in assay [1] (first compound 0.6325 µM), 0.443; in assay [1] (first compound 2 µM), 0.49; in assay [1] (first compound 6.325 µM) it was 0.445. Also, the relative viability in assay [1] (first compound 20 µM) came out at 0.512; with AZD5582 + Foretinib (first compound 0.001581 µM), 0.913; with AZD5582 + Foretinib (first compound 0.005 µM) it was 0.94; in the assay with AZD5582 + Foretinib (first compound 0.01581 µM) it was 0.908; in the assay with AZD5582 + Foretinib (first compound 0.05 µM) it was 0.958.

In the case of LU99A, the relative viability in the assay with AZD5582 + Decitabine (first compound 0.001581 µM) worked out at 0.882; in the assay with AZD5582 + Decitabine (first compound 0.005 µM), 1.09; with AZD5582 + Decitabine (first compound 0.01581 µM), 0.829; with AZD5582 + Decitabine (first compound 0.05 µM), 0.97; in the assay with AZD5582 + Vorinostat (first compound 0.001581 µM), 0.503; with AZD5582 + Vorinostat (first compound 0.005 µM) it was 0.482. In addition, the relative viability in the assay with AZD5582 + Vorinostat (first compound 0.01581 µM) was found to be 0.466; with AZD5582 + Vorinostat (first compound 0.05 µM) it was 0.591; in assay [1] (first compound 0.2 µM), 0.894; in assay [1] (first compound 0.6325 µM) it was 0.781; in assay [1] (first compound 2 µM), 0.733; in assay [1] (first compound 6.325 µM), 0.713. Besides, the relative viability in assay [1] (first compound 20 µM) amounted to 0.746; with AZD5582 + Foretinib (first compound 0.001581 µM), 0.871; in the assay with AZD5582 + Foretinib (first compound 0.005 µM), 0.948; in the assay with AZD5582 + Foretinib (first compound 0.01581 µM) it was 0.886; in the assay with AZD5582 + Foretinib (first compound 0.05 µM), 1.03.
